The record followed here is patent US11267825B2 (AICURIS GMBH & CO. KG, priority 2017, dated 2022).

In test [1] the test system is HBV. The test can be described thus: Determination of HBV DNA from the supernatants of HepAD38 cells (anti-HBV activity). Conditions: Hepatitis B virus, 144 h; HBV DNA in HepAD38 supernatant at day 6; read-out: Cell Activity (EC50). Type of test: cell-based, hepatitis B virus. In outline: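 HepAD38 cells (60,000/well) were treated with half-log compound dilutions in tetracycline-free medium to induce HBV production. On day 6, HBV DNA was purified from filtered supernatant and quantified by real-time PCR against plasmid standards. EC50 values came from non-linear regression of relative copy numbers, typically from three experiments in triplicate.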

Test [2] concerns the target HBV core protein (UniProt P03146). Type of test: biochemical. As to conditions: read-out: Assembly Activity (IC50); BODIPY-FL labelled core protein, assembly started with NaCl, read after 6 min. In outline: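 Fluorescence-quenching assembly assay using E. coli-expressed core protein 1–149 plus Cys150, labelled with BODIPY-FL maleimide, at 1.0–2.0 μM in 50 mM HEPES pH 7.5, 0.5% DMSO. Assembly started with NaCl to […]; fluorescence (ex 477/em 525 nm) read after 6 min. EC50 by non-linear regression, 8-point 0.5-log dilutions.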

Sequence of HBV core protein (P03146 whole entry, looked up): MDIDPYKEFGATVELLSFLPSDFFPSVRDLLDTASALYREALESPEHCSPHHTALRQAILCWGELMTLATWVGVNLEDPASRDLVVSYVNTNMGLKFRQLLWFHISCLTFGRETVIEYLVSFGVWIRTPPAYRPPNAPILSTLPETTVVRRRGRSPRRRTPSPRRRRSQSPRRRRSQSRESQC

The EC50 is the concentration at which the effect is half-maximal. As a reminder, the IC50 is the concentration at which inhibition is half-maximal. Turning to `O=C(c1cc2c(Cl)c(F)ccc2[nH]1)N1CCc2nc(NCC3(CO)CC3)sc2C1` [Example 251, [1-({[5-(4-chloro-5-fluoro-1H-indole-2-carbonyl)-4H,5H,6H,7H-[1,3]thiazolo[5,4-c]pyridin-2-yl]amino}methyl)cyclopropyl]methanol], the EC50 in test [1] was less than 1 µM. The IC50 in test [2] was less than 5 µM.
For `O=C(c1cc2cc(F)c(Cl)cc2[nH]1)N1CCc2nc(NCC3CCOC3)sc2C1` (centres unmarked) [Example 239, 5-(6-chloro-5-fluoro-1H-indole-2-carbonyl)-N-[(oxolan-3-yl)methyl]-4H,5H,6H,7H-[1,3]thiazolo[5,4-c]pyridin-2-amine], in test [1], the concentration for a half-maximal effect (EC50) was less than 1 µM. The half-inhibitory concentration (IC50) in test [2] is less than 5 µM.
In the case of `COC(C)(CO)CNc1nc2c(s1)CN(C(=O)c1cc3ccccc3[nH]1)CC2` (centres unmarked) [Example 283, 3-{[5-(1H-indole-2-carbonyl)-4H,5H,6H,7H-[1,3]thiazolo[5,4-c]pyridin-2-yl]amino}-2-methoxy-2-methylpropan-1-ol], the EC50 in test [1] is less than 1 µM. Moreover, in test [2], the concentration for half-maximal inhibition (IC50) was in the range of 5 to 10 µM.
On to `O=C(c1cc2ccccc2[nH]1)N1CCc2nc(NCC(CO)CC3CC3)sc2C1` (centres unmarked) [Example 282, 2-(cyclopropylmethyl)-3-{[5-(1H-indole-2-carbonyl)-4H,5H,6H,7H-[1,3]thiazolo[5,4-c]pyridin-2-yl]amino}propan-1-ol], for which the EC50 in test [1] was less than 1 µM. In addition, the IC50 in test [2] was in the range of 5 to 10 µM.
As for `CC(C)[C@H](N)C(=O)OCC1(CNc2nc3c(s2)CN(C(=O)c2cc4ccccc4[nH]2)CC3)CC1` [Example 235, [1-({[5-(1H-indole-2-carbonyl)-4H,5H,6H,7H-[1,3]thiazolo[5,4-c]pyridin-2-yl]amino}methyl)cyclopropyl]methyl (2S)-2-amino-3-methylbutanoate], the EC50 in test [1] is less than 1 µM. Also, in test [2], the IC50 was less than 5 µM.
For the compound `O=C(c1cc2c(Cl)cccc2[nH]1)N1CCc2nc(NCC3(CO)CC3)sc2C1` [Example 63, [1-({[5-(4-chloro-1H-indole-2-carbonyl)-4H,5H,6H,7H-[1,3]thiazolo[5,4-c]pyridin-2-yl]amino}methyl)cyclopropyl]methanol], the EC50 in test [1] is less than 1 µM. In addition, in test [2], the concentration for half-maximal inhibition (IC50) is less than 5 µM.
As for `O=C(c1cc2c(C(F)F)cccc2[nH]1)N1CCc2nc(NCC3CCOC3)sc2C1` (centres unmarked) [Example 325, 5-[4-(difluoromethyl)-1H-indole-2-carbonyl]-N-[(oxolan-3-yl)methyl]-4H,5H,6H,7H-[1,3]thiazolo[5,4-c]pyridin-2-amine], in test [1], the half-maximal effective concentration (EC50) was less than 1 µM. Also, the IC50 in test [2] was less than 5 µM.
On to `Cc1cccc2[nH]c(C(=O)N3CCc4nc(N)sc4C3)cc12` [Example 149, 5-(4-methyl-1H-indole-2-carbonyl)-41H,5H,6H,7H-[1,3]thiazolo[5,4-c]pyridin-2-amine], for which the 50% effective concentration (EC50) in test [1] fell in the range of 1 to 10 µM. The IC50 in test [2] was less than 5 µM.
`Nc1nc2c(s1)CN(C(=O)c1cc3cc(F)ccc3[nH]1)CC2` [Example 196, 5-(5-fluoro-1H-indole-2-carbonyl)-4H,5H,6H,7H-[1,3]thiazolo[5,4-c]pyridin-2-amine]: the concentration for a half-maximal effect (EC50) in test [1] was 1 to 10 µM. In addition, in test [2], the IC50 is less than 5 µM.
The like results for `O=C(c1cc2c(F)cc(F)cc2[nH]1)N1CCc2nc(NC3(CO)CCC3)sc2C1` [Example 218, (1-{[5-(4,6-difluoro-1H-indole-2-carbonyl)-4H,5H,6H,7H-[1,3]thiazolo[5,4-c]pyridin-2-yl]amino}cyclobutyl)methanol] were, in that order, less than 1 µM and 5 to 10 µM.
Turning to `COCC1(CNc2nc3c(s2)CN(C(=O)c2cc4ccccc4[nH]2)CC3)CC1` [Example 340, 5-(1H-indole-2-carbonyl)-N-{[1-(methoxymethyl)cyclopropyl]methyl}-4H,5H,6H,7H-[1,3]thiazolo[5,4-c]pyridin-2-amine], in test [1], the EC50 is less than 1 µM. The IC50 in test [2] was less than 5 µM.
As to `N#Cc1nc2c(s1)CN(C(=O)c1cc3ccccc3[nH]1)CC2` [Example 203, 5-(1H-indole-2-carbonyl)-4H,5H,6H,7H-[1,3]thiazolo[5,4-c]pyridine-2-carbonitrile], the EC50 in test [1] was less than 100 µM. Besides, the IC50 in test [2] was less than 100 µM.
On to `O=C(c1cc2ccccc2[nH]1)N1CCc2nc(NC3(c4c[nH]nn4)CC(F)(F)C3)sc2C1` [Example 430, N-[3,3-difluoro-1-(1H-1,2,3-triazol-4-yl)cyclobutyl]-5-(1H-indole-2-carbonyl)-4H,5H,6H,7H-[1,3]thiazolo[5,4-c]pyridin-2-amine], for which the EC50 in test [1] is less than 1 µM. Further, in test [2], the IC50 was less than 5 µM.
Turning to `O=C(c1cc2ccccc2[nH]1)N1CCc2nc(CO)sc2C1` [Example 31, [5-(1H-indole-2-carbonyl)-4H,5H,6H,7H-[1,3]thiazolo[5,4-c]pyridin-2-yl]methanol], in test [1], the EC50 lay in the range of 1 to 10 µM. Also, in test [2], the IC50 was 5 to 10 µM.
Regarding `O=C(c1cc2ccccc2[nH]1)N1CCc2nc(N[C@@H]3CCCC[C@H]3O)sc2C1` [Example 269, (1R,2R)-2-{[5-(1H-indole-2-carbonyl)-4H,5H,6H,7H-[1,3]thiazolo[5,4-c]pyridin-2-yl]amino}cyclohexan-1-ol], in test [1], the EC50 was less than 1 µM. Further, the IC50 in test [2] is less than 5 µM.
For `O=C(c1cc2c(F)c(F)ccc2[nH]1)N1CCc2nc(NCC3(CO)CC3)sc2C1` [Example 252, [1-({[5-(4,5-difluoro-1H-indole-2-carbonyl)-4H,5H,6H,7H-[1,3]thiazolo[5,4-c]pyridin-2-yl]amino}methyl)cyclopropyl]methanol], the EC50 in test [1] was less than 1 µM. Also, the concentration for half-maximal inhibition (IC50) in test [2] was less than 5 µM.
The matching figures for `O=C(c1cc2ccccc2[nH]1)N1CCc2nc(NCC(CO)CC3CCOCC3)sc2C1` (centres unmarked) [Example 226, 3-{[5-(1H-indole-2-carbonyl)-4H,5H,6H,7H-[1,3]thiazolo[5,4-c]pyridin-2-yl]amino}-2-[(oxan-4-yl)methyl]propan-1-ol]: less than 1 µM and less than 5 µM.
The like results for `O=C(c1cc2c(F)cc(F)cc2[nH]1)N1CCc2nc(NCC3CCOC3)sc2C1` (centres unmarked) [Example 119, 5-(4,6-difluoro-1H-indole-2-carbonyl)-N-[(oxolan-3-yl)methyl]-4H,5H,6H,7H-[1,3]thiazolo[5,4-c]pyridin-2-amine] were, in that order, less than 1 µM and less than 5 µM.
Turning to `CC(F)(F)c1cc(F)cc2[nH]c(C(=O)N3CCc4nc(N)sc4C3)cc12` [Example 290, 5-[4-(1,1-difluoroethyl)-6-fluoro-1H-indole-2-carbonyl]-4H,5H,6H,7H-[1,3]thiazolo[5,4-c]pyridin-2-amine], in test [1], the EC50 was less than 1 µM. In addition, the IC50 in test [2] was less than 5 µM.
On to `CC(C)(C)CC(=O)Nc1nc2c(s1)CN(C(=O)c1cc3ccccc3[nH]1)CC2` [Example 26, N-[5-(1H-indole-2-carbonyl)-4H,5H,6H,7H-[1,3]thiazolo[5,4-c]pyridin-2-yl]-3,3-dimethylbutanamide], for which the EC50 in test [1] is less than 1 µM. For the same compound, the 50% inhibitory concentration (IC50) in test [2] was in the range of 5 to 10 µM.
The like results for `Nc1nc2c(s1)CN(C(=O)c1cc3c(F)ccc(F)c3[nH]1)CC2` [Example 170, 5-(4,7-difluoro-1H-indole-2-carbonyl)-4H,5H,6H,7H-[1,3]thiazolo[5,4-c]pyridin-2-amine] were, in that order, less than 1 µM and less than 5 µM.
The matching figures for `Cc1cc(C)c2[nH]c(C(=O)N3CCc4nc(N)sc4C3)cc2c1` [Example 137, 5-(5,7-dimethyl-1H-indole-2-carbonyl)-4H,5H,6H,7H-[1,3]thiazolo[5,4-c]pyridin-2-amine]: less than 100 µM and less than 100 µM.
`CCc1cccc2[nH]c(C(=O)N3CCc4nc(NCC5(CO)CC5)sc4C3)cc12` [Example 272, [1-({[5-(4-ethyl-1H-indole-2-carbonyl)-4H,5H,6H,7H-[1,3]thiazolo[5,4-c]pyridin-2-yl]amino}methyl)cyclopropyl]methanol]: in test [1], the EC50 was less than 1 µM. The IC50 in test [2] was less than 5 µM.
On to `CC(C)(C)C(=O)Nc1nc2c(s1)CN(C(=O)c1cc3ccccc3[nH]1)CC2` [Example 275, N-[5-(1H-indole-2-carbonyl)-4H,5H,6H,7H-[1,3]thiazolo[5,4-c]pyridin-2-yl]-2,2-dimethylpropanamide], for which the EC50 in test [1] is less than 1 µM. For the same compound, in test [2], the IC50 was in the range of 5 to 10 µM.
On to `CCc1cc(F)cc2[nH]c(C(=O)N3CCc4nc(NC(=O)C5CCOCC5)sc4C3)cc12` [Example 403, N-[5-(4-ethyl-6-fluoro-1H-indole-2-carbonyl)-4H,5H,6H,7H-[1,3]thiazolo[5,4-c]pyridin-2-yl]oxane-4-carboxamide], for which, in test [1], the concentration for a half-maximal effect (EC50) was less than 1 µM. For the same compound, the concentration for half-maximal inhibition (IC50) in test [2] is less than 5 µM.
On to `CNC(=O)Nc1nc2c(s1)CN(C(=O)c1cc3c(Cl)cc(F)cc3[nH]1)CC2` [Example 266, 1-[5-(4-chloro-6-fluoro-1H-indole-2-carbonyl)-4H,5H,6H,7H-[1,3]thiazolo[5,4-c]pyridin-2-yl]-3-methylurea], for which the half-maximal effective concentration (EC50) in test [1] is less than 1 µM. For the same compound, the 50% inhibitory concentration (IC50) in test [2] was less than 5 µM.
The like results for `O=C(c1cc2ccccc2[nH]1)N1CCc2nc(N3CC4COCCN4C3)sc2C1` (centres unmarked) [Example 295, 2-(2-{hexahydro-1H-imidazo[4,3-c][1,4]oxazin-2-yl}-4H,5H,6H,7H-[1,3]thiazolo[5,4-c]pyridine-5-carbonyl)-1H-indole] were, in that order, 1 to 10 µM and less than 100 µM.
`Cc1nc2c(s1)CN(C(=O)c1cc3cc(Cl)ccc3[nH]1)CC2` [Example 161, 5-chloro-2-{2-methyl-4H,5H,6H,7H-[1,3]thiazolo[5,4-c]pyridine-5-carbonyl}-1H-indole]: the EC50 in test [1] lay in the range of 1 to 10 µM. Further, the half-maximal inhibitory concentration (IC50) in test [2] fell in the range of 5 to 10 µM.
